Assay results published in patent publication US20260234165A1, “MACROCYCLIC COMPOUNDS, PREPARATION METHOD THEREFOR, AND USE THEREOF” (GENFLEET THERAPEUTICS (SHANGHAI) INC., priority 2004, published 2026).
Like-named read-outs stand apart in the source and are kept apart here.

What was measured:
Format in all cases: cell-based, human
[1] = system: p-ERK in AsPC-1 cells (KRAS G12D mutation); assay: Cell p-ERK assay (HTRF) in AsPC-1 cells; settings: AsPC-1 cells, 3 h compound incubation, HTRF p-ERK T202/Y204, read-out: AsPC-1 p-ERK IC50
How it was run: (§1)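 IC50 values derive from four-parameter fitting of p-ERK (T202/Y204) HTRF inhibition, normalized to DMSO and blank controls. The lysates came from cells exposed for 3 h to serial 3.16-fold compound dilutions at 0.1% DMSO, after overnight plating at 10000 AsPC-1 or 20000 NCI-H441 cells per well.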

[2] = system: AsPC-1 cells (KRAS G12D mutation); assay: 3D cell proliferation assay (CellTiter Glo-3D), AsPC-1; settings: medium with 2% FBS, read-out: AsPC-1 AP IC50
How it was run: (§2)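 NCI-H441 ([…] lung) and AsPC-1 (KRAS G12D pancreatic) cells, 800 per well, were seeded in RPMI-1640 with 2% FBS and dosed next day with 3.16-fold compound dilutions (0.1% DMSO). After 5 days at 37 °C, CellTiter-Glo 3D luminescence gave inhibition versus DMSO and blank; IC50 from four-parameter fit.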

[3] = system: NCI-H441 cells; assay: 3D cell proliferation assay (CellTiter Glo-3D), NCI-H441; settings: medium with 2% FBS, read-out: H441 AP IC50
How it was run: as §2

[4] = system: p-ERK in NCI-H441 cells (KRAS G12V mutation); assay: Cell p-ERK assay (HTRF) in NCI-H441 cells; settings: NCI-H441 cells, 3 h compound incubation, HTRF p-ERK T202/Y204, read-out: H441 p-ERK IC50
How it was run: as §1

[5] = 3D cell proliferation (CellTiter Glo-3D)
[6] = Homo sapiens, ASPC1, 3D cell proliferation (CellTiter Glo-3D)
[7] = Homo sapiens, NCI-H441, 3D cell proliferation (CellTiter Glo-3D)

## CCn1c(-c2cc(C#CC3(N4CCCOCC4)CC3)cnc2[C@H](C)OC)c2c3cc(ccc31)-c1csc(n1)C[C@H](NC(=O)[C@H]1[C@H](C)[C@@H]1C)C(=O)N1CCC[C@H](N1)C(=O)OCC(C)(C)C2 (atropisomer, axis not shown; (Ra)) [Compound Z645, (1r,2R,3S)—N-((4S,Z)—(Ra)-1-(5-((1-(1,4-oxazepan-4-yl)cyclopropyl)ethynyl)-2-((S)-1-methoxyethyl)pyridin-3-yl)-1^1-ethyl-10,10-dimethyl-5,7-dioxo-6^1,6^2,6^3,6^4,6^5,6^6-hexahydro-1^1H-8-oxa-2(4,2)-thiazola-1(5,3)-indola-6(1,3)-pyridazinacycloundecaphane-4-yl)-2,3-dimethylcyclopropane-1-carboxamide]
[1]
  IC50: 0.15 nM
[2]; [5]
  IC50: 0.81 nM
[3]; [5]
  IC50: 0.5 nM
[4]
  IC50: 0.48 nM

## CCn1c(-c2cc(C#C[C@H]3COCCN3C)cnc2[C@H](C)OC)c2c3cc(ccc31)-c1csc(n1)C[C@H](NC(=O)[C@H]1[C@H](C)[C@@H]1C)C(=O)N1CCC[C@H](N1)C(=O)OCC(C)(C)C2 (atropisomer, axis not shown; (Ra)) [Compound Z673, (1r,2R,3S)—N-((6^3S,4S,Z)-1^1-ethyl-(Ra)-1^2-(2-((S)-1-methoxyethyl)-5-(((S)-4-methylmorpholin-3-yl)ethynyl)pyridin-3-yl)-10,10-dimethyl-5,7-dioxo-6^1,6^2,6^3,6^4,6^5,6^6hexahydro-1^1H-8-oxa-2(4,2)-thiazola-1(5,3)-indola-6(1,3)-pyridazinacycloundecaphane-4-yl)-2,3-dimethylcyclopropane-1-carboxamide]
[1]; Homo sapiens, ASPC1, 3 h
  IC50: 0.27 nM
[2]; [6]
  IC50: 0.52 nM
[3]; [7]
  IC50: 0.23 nM
[4]; Homo sapiens, NCI-H441, 3 h
  IC50: 0.33 nM

## CCn1c(-c2cc(N3CCN(C)CC3)cnc2[C@H](C)OC)c2c3cc(ccc31)-c1csc(n1)C[C@H](Nc1cc(C)cnn1)C(=O)N1CCC[C@H](N1)C(=O)OCC(C)(C)C2 [Compound Z559, (6^3S,4S,Z)-1^1-ethyl-(R3)-1^2-(2-((S)-1-methoxyethyl)-5-(4-methylpiperazin-1-yl)pyridin-3-yl)-10,10-dimethyl-4-((5-methylpyridazin-3-yl)amino)-6^1,6^2,6^3,6^4,6^5,6^6-hexahydro-1^1H-8-oxa-2(4,2)-thiazola-1(5,3)-indola-6(1,3)-pyridazinacycloundecaphane-5,7-dione]
[1]; Homo sapiens, ASPC1, 3 h
  IC50: 45 nM
[2]; [6]
  IC50: 47.5 nM
[3]; [7]
  IC50: 17.5 nM
[4]; Homo sapiens, NCI-H441, 3 h
  IC50: 14.6 nM

## CCn1c(-c2cc(OCCN3CCS(=O)(=O)CC3)cnc2[C@H](C)OC)c2c3cc(ccc31)-c1csc(n1)C[C@H](NC(=O)C(C)C(C)C)C(=O)N1CCC[C@H](N1)C(=O)OCC(C)(C)C2 (stereo partly drawn) [Compound Z607, N-((6^3S,4S,Z)—(R4)-1^2(5-(2-(1,1-dioxidothiomorpholino)ethoxy)-2-((S)-1-methoxyethyl)pyridin-3-yl)-1^1-ethyl-10,10-dimethyl-5,7-dioxo-6^1,6^2,6^3,6^4,6^5,6^6-hexahydro-1^1H-8-oxa-2(4,2)-thiazola-1(5,3)-indola-6(1,3)-pyridazinacycloundecaphane-4-yl)-2,3-dimethylbutanamide]
[1]
  IC50: 0.54 nM
[2]; [5]
  IC50: 1.12 nM
[3]; [5]
  IC50: 0.36 nM
[4]
  IC50: 0.45 nM

## CCn1c(-c2cc(N3CCN(C)CC3)cnc2[C@H](C)OC)c2c3cc(ccc31)-c1csc(n1)C[C@H](Nc1nnc3ccccn13)C(=O)N1CCC[C@H](N1)C(=O)OCC(C)(C)C2 (atropisomer, axis not shown; (Ra)) [Compound Z460, (6^3S,4S,Z)-4-([1,2,4]triazolo[4,3-a]pyridin-3-ylamino)-1^1-ethyl-(Ra)-1^2-(2-((S)-1-methoxyethyl)-5-(4-methylpiperazin-1-yl)pyridin-3-yl)-10-O-dimethyl-6^1,6^2,6^3,6^4,6^5,6^6-hexahydro-1^1H-8-oxa-2(4,2)-thiazola-1(5,3)-indola-6(1,3)-pyridazinacycloundecaphane-5,7-dione]
[1]; Homo sapiens, ASPC1, 3 h
  IC50: 26.2 nM
[2]; [6]
  IC50: 73.4 nM
[3]; [7]
  IC50: 14.3 nM
[4]; Homo sapiens, NCI-H441, 3 h
  IC50: 6.3 nM
